{"source": "patent US12059472B2", "about": "(Bayer Aktiengesellschaft, priority 2016, dated 2024)", "key": {"[1]": {"system": "NCI-H292: human mucoepidermoid lung carcinoma cells", "assay": "Cytotoxic effect on NCI-H292 cells (MTT/CTG assay)", "format": "cell-based", "settings": "Table 2, active metabolites, MTT", "description": "(§1) The cells were cultivated by the standard method as stated by the American Tissue Culture Collection (ATCC) or the Leibniz-Institut DSMZ-Deutsche Sammlung von Mikroorganismen und Zellkulturen GmbH (DSMZ) for the cell lines in question.\nThe cells were then incubated in an incubator at 37° C. and 5% carbon dioxide.\n(§2) The cells were then incubated in an incubator at 37° C. and 5% carbon dioxide. After 48 h, the medium was replaced. […] To this end, the MTT reagent was incubated with the cells for 4 h, followed by lysis of the cells overnight by addition of the detergent. The dye formed was detected at 570 nm (Infinite M1000 pro, Tecan)."}, "[2]": {"system": "SK-HEP-1: human liver cell cancer line", "assay": "Cytotoxic effect on SK-HEP-1 cells (MTT assay)", "format": "cell-based", "settings": "SK-HEP1, Table 2, active metabolites", "description": "as §1\nas §2, with “Tecan). The measured data were used to calculate the IC50 of the growth inhibition using the DRC (dose response curve). The proliferation of cells which were not treated with test substance but were otherwise identically treated was defined as the 100% figure.” for “Tecan).”"}, "[3]": {"system": "KPL4: human breast cancer cell line", "assay": "Cytotoxic effect on KPL4 cells (MTT assay)", "format": "cell-based", "settings": "Table 2, active metabolites", "description": "The analysis of the cytotoxic effects of the ADCs was carried out with various cell lines: • NCI-H292: human mucoepidermoid lung carcinoma cells, ATCC-CRL-1848, standard medium: RPMI 1640 (Biochrom; #FG1215, stab. glutamine)+10% FCS (Sigma; #F2442), TWEAKR-positive; EGFR-positive. • BxPC3: human pancreas carcinoma cells, ATCC-CRL-1687, standard medium: RPMI 1640 (Biochrom; #FG1215, stab. glutamine)+10% FCS (Sigma; #F2442), TWEAKR-positive. • LoVo human colorectal cancer cells, ATCC No. CCL-229, cultivation for MTT assay: standard medium: Kaighn's+L-glutamine (Invitrogen 21127)+10% heat inactivated FCS (from Gibco, No. 10500-064). Cultivation for CTG assay: RPMI 1640 (Biochrom; #FG1215, stab. glutamine)+10% FCS (Sigma #F2442). […]\nThe cells were cultivated by the standard method, with the growth media specified under C-1a. […] After 96 h, the cell proliferation was detected using the MTT assay (ATCC, Manassas, Virginia, USA, catalogue No. 30-1010K). […] The dye formed was detected at 570 nm (Infinite M1000 pro, Tecan). The measured data were used to calculate the IC50 of the growth inhibition using the DRC (dose response curve). […]"}, "[4]": {"assay": "Caco-2 flux assay for cell permeability", "format": "in vitro ADME", "settings": "human; Caco-2, basal to apical, 2 hours", "description": "The cell permeability of a substance can be investigated by means of in vitro testing in a flux assay using Caco-2 cells [M. D. Troutman and D. R. Thakker, Pharm. […] For this purpose, the cells were cultured for 15-16 days on 24-well filter plates. For the determination of permeation, the respective test substance was applied in a HEPES buffer to the cells either apically (A) or basally (B) and incubated for 2 hours. After 0 hours and after 2 hours, samples were taken from the cis and trans compartments. The samples were separated by HPLC (Agilent 1200, Böblingen, Germany) using reverse phase columns. The HPLC system was coupled via a Turbo Ion Spray Interface to a Triple Quadropol mass spectrometer API 4000 (AB SCIEX Deutschland GmbH, Darmstadt, Germany).\nOf critical importance for toxophors which are released intracellularly is the permeability from B to A [Papp (B-A)] and the ratio of Papp (B-A) to Papp (A-B) (efflux ratio): the lower this permeability, the slower the active and passive transport processes of the substance through the monolayer of Caco-2 cells."}}}
{"compound": "CC(C)(C)[C@H](c1cc(-c2cc(F)ccc2F)cn1Cc1ccccc1)N(CC[C@H](N)C(=O)NCCC(=O)N[C@H](CCC(=O)O)C(=O)O)C(=O)CO", "note": "[Example M3, N-{(2S)-2-Amino-4-[{(1R)-1-[1-benzyl-4-(2,5-difluorophenyl)-1H-pyrrol-2-yl]-2,2-dimethylpropyl}(glycoloyl)amino]butanoyl}-beta-alanyl-D-glutamic acid]", "values": [{"measurement": "IC50", "setting": "[1]", "value": 174, "unit": "nM"}, {"measurement": "IC50", "setting": "[2]", "value": 14.6, "unit": "nM"}, {"measurement": "IC50", "setting": "[3]", "value": 173, "unit": "nM"}, {"measurement": "Papp B→A at 2 h", "setting": "[4]", "value": 0.27, "unit": "×10⁻⁶ cm/s"}]}
